Source: patent US12234239B2, “Crystalline forms of 2-(3-(4-(7H-pyrrolo[2,3-d]pyrimidin-4-yl)-1H-pyrazol-1-yl)-1-(cyclopropylsulfonyl)azetidin-3-yl)acetonitrile” (Elanco US, Inc., priority 2019, dated 2025)

Test system: pruritus and skin lesions associated with allergic dermatitis in dogs
Experiment: Control of pruritus and skin lesions associated with allergic dermatitis in dogs (four-arm, blinded, randomized, placebo-controlled study)
Assay type: in vivo
Conditions: for Treatment success LSMean (response rate): oral tablets (Form II) once daily, success = 2 unit or more reduction from baseline on 10-unit owner-assessed pruritus VAS in at least 5 of first 7 treatment days, generalized linear mixed model
Procedure: Control of Pruritus and Skin Lesions Associated with Allergic Dermatitis in Dogs
This study evaluated 2-(3-(4-(7H-pyrrolo[2,3-d]pyrimidin-4-yl)-1H-pyrazol-1-yl)-1-(cyclopropylsulfonyl)azetidin-3-yl)acetonitrile for control of pruritus and skin lesions associated with allergic dermatitis in dogs.
Oral tablets were prepared containing Form II 2-(3-(4-(7H-pyrrolo[2,3-d]pyrimidin-4-yl)-1H-pyrazol-1-yl)-1-(cyclopropylsulfonyl)azetidin-3-yl)acetonitrile, as follows. Oral tablet blends were prepared containing crystal Form II 2-(3-(4-(7H-pyrrolo[2,3-d]pyrimidin-4-yl)-1H-pyrazol-1-yl)-1-(cyclopropylsulfonyl)azetidin-3-yl)acetonitrile, microcrystalline cellulose, pregelantinized starch, dicalcium phosphate dehydrate, oxide pigment, and magnesium stearate. The tablet blends were pressed giving tablet cores containing 2.4 mg, 3.6 mg, 5.4 mg, and 16 mg of crystal Form II 2-(3-(4-(7H-pyrrolo[2,3-d]pyrimidin-4-yl)-1H-pyrazol-1-yl)-1-(cyclopropylsulfonyl)azetidin-3-yl)acetonitrile, as well as a placebo core. The tablet cores were coated with a mixture containing water and Opadry 20A150011 Red, thereby giving the final oral tablets for the study.
A four-arm, blinded, randomized, placebo-controlled study was conducted to assess the efficacy of daily administration of 2-(3-(4-(7H-pyrrolo[2,3-d]pyrimidin-4-yl)-1H-pyrazol-1-yl)-1-(cyclopropylsulfonyl)azetidin-3-yl)acetonitrile for control of pruritus and skin lesions associated with allergic dermatitis in dogs. Subjects were randomized to one of the following treatment arms: API-containing Tablets, 0.25-0.40 mg/kg Body Weight; API-containing Tablets, 0.40-0.60 mg/kg Body Weight; API-containing Tablets, 0.60-0.80 mg/kg Body Weight; and Placebo Tablets, 0.0 mg/kg Body Weight.
Dogs enrolled in the study received once daily treatment for approximately 28 days. Baseline data (clinical history, concomitant therapies, body weight, physical examinations and assessments of pruritus and atopic dermatitis) were collected for each dog at enrollment (Day 0). Additional health assessments, physical examinations, body weight measurements, assessments of pruritus and atopic dermatitis, and collection of blood samples for hematology, serum chemistry and pharmacokinetic (PK) analysis occurred consistent with standard testing protocols.
The primary effectiveness variable was treatment success. A treatment success was defined as a 2 unit or more reduction from baseline on the 10-unit owner-assessed pruritus Visual-Analog Scale (VAS) in at least 70% of the first 7 treatment days (i.e., in at least 5 of the first 7 treatment days). Dogs withdrawn from the study within the first 7 days of treatment due to a perceived lack of effectiveness were considered treatment failures.
Random effects were fit for site and site treatment with a variance component covariance structure and a compound symmetry covariance structure was fit for individual dogs.

## N#CCC1(n2cc(-c3ncnc4[nH]ccc34)cn2)CN(S(=O)(=O)C2CC2)C1 [2-(3-(4-(7H-pyrrolo[2,3-d]pyrimidin-4-yl)-1H-pyrazol-1-yl)-1-(cyclopropylsulfonyl)azetidin-3-yl)acetonitrile]
0.25-0.40 mg/kg
  Treatment success LSMean (response rate): 0.4640
0.40-0.60 mg/kg
  Treatment success LSMean (response rate): 0.5590
Highest dose group 0.6-0.8 mg/kg once daily, minimum effective dose = success in at least 50% of the dogs
  primary endpoint for treatment success: achieved the primary endpoint for treatment success
Low dose (0.24-0.4 mg/kg) once daily
  estimated marginal mean response rate compared with placebo rate: higher than the placebo rate
Medium dose (0.4-0.6 mg/kg) once daily
  estimated marginal mean response rate compared with placebo rate: higher than the placebo rate
Once daily 0.6-0.8 mg/kg, at day 28
  improvement in lesion scores: significant improvement in lesion scores
Once daily dosing with 0.6-0.8 mg/kg, from first dose
  improvements in pruritus: significant improvements in pruritus from first dose
